ChEMBL document CHEMBL1201862, “PubChem BioAssay data set” (2004)
Activity calls are given as the source filed them.

How the values were obtained:
[1] = target: T1, Cysteine protease ATG4B (Homo sapiens, UniProt Q9Y4P1); assay type: functional;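 further: Fluorescence-based dose-response confirmation assay measuring inhibition of ATG4B activity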
T1 sequence (Q9Y4P1 whole entry): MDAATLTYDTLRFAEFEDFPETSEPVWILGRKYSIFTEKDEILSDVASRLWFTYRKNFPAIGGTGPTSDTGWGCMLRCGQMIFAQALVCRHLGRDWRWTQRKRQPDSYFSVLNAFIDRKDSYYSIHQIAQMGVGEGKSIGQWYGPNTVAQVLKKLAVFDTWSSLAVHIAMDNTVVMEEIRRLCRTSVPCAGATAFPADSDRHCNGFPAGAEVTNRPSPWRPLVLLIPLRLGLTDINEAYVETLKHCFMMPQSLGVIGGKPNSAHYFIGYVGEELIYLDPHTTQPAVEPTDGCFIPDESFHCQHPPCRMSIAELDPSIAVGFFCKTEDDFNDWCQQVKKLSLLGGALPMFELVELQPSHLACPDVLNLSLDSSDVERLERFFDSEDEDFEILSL

[2] = HEK-293T viability loss after treatment – luminescence, T-cell screen hits, cytotoxicity control for TCR NF-kB inhibitor project, dose response (AID 489026); assay type: functional, cell-based;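 further: cells exposed to compound about 14 hours before the viability readout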
[3] = target: T2, Protein RecA (Mycobacterium tuberculosis, UniProt P9WHJ3); assay: Fluorescence Cell-Free Homogeneous Dose Retest to Identify Inhibitors of RecA-Intein Splicing Activity. [Related pubchem assays (depositor defined):AID2097, AID2223, AID489010, AID492950]; assay type: functional
T2 sequence (P9WHJ3 whole entry): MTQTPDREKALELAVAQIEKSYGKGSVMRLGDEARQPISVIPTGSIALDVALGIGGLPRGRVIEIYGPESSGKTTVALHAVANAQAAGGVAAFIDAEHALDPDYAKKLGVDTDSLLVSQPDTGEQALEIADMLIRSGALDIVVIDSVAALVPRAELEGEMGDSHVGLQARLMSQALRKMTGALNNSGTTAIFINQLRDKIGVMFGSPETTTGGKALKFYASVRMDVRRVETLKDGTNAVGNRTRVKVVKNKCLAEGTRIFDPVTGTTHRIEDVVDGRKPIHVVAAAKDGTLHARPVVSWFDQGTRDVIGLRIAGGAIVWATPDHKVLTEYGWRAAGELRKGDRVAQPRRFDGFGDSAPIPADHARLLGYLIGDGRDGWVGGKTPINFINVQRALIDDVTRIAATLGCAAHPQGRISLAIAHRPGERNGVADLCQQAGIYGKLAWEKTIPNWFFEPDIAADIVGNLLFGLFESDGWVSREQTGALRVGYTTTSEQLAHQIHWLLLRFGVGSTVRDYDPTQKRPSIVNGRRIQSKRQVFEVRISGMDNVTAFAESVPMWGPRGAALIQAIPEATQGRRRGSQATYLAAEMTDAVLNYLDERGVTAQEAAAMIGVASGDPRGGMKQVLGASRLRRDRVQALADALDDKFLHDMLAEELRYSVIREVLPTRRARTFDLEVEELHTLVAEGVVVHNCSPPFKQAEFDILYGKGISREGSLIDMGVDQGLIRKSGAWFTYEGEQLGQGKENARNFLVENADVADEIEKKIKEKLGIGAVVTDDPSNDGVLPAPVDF

[4] = system: INS1; assay: INS-1E survival protection against cytokine death – cell-based, luminescence, retest, dose response (AID 449756); assay type: functional; settings: Rattus norvegicus;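 further: cell death triggered by IL-1 beta plus TNF-alpha plus IFN-gamma mixture; protective hits raise ATP signal compared with cytokine alone wells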
[5] = target: T3, Caspase-3 (Homo sapiens, UniProt P42574); assay: human caspase-3 protease activity blockade – biochemical, fluorescence, cherry-picked samples, selectivity assay for caspase-6 allosteric inhibitor project, dose response (AID 743291)
T3 sequence (P42574 whole entry): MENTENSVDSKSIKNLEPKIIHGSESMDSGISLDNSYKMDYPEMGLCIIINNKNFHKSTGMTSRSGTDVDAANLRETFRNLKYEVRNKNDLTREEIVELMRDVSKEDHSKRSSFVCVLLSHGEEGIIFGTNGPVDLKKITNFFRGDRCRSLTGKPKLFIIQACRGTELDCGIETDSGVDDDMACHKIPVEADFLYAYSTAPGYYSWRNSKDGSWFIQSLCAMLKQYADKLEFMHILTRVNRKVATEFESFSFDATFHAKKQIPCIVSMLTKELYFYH

[6] = target: T4, Replicative DNA helicase DnaB (Mycobacterium tuberculosis, UniProt P9WMR3); assay: DnaB intein splicing inhibitors, dose response, biochemical, cell-free fluorescence (AID 449749); assay type: functional
T4 sequence (P9WMR3 whole entry): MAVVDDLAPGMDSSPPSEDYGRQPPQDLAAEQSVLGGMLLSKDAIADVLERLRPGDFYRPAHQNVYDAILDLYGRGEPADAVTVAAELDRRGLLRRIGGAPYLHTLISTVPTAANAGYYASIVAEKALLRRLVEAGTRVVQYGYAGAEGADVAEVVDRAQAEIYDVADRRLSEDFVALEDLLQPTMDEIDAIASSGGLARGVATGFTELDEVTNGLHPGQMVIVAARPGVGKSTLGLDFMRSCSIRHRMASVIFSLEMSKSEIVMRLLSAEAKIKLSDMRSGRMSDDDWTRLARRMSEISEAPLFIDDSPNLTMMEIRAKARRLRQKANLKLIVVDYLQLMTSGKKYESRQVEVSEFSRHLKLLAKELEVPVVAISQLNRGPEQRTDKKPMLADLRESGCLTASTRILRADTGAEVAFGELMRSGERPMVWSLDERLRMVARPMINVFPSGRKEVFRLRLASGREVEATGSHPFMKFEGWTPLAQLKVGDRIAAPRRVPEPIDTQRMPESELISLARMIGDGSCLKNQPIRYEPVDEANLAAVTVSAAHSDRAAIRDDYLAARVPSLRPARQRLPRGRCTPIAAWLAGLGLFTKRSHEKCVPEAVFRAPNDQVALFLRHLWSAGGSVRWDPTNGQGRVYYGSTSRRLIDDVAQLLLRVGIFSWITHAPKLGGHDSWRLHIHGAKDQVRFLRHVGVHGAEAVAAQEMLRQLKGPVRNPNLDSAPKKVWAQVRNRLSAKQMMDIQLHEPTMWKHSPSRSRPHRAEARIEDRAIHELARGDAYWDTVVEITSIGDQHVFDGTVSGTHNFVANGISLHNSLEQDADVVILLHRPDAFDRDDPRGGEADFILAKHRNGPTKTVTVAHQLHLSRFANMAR

[7] = target: T5, Caspase-6 (Homo sapiens, UniProt P55212); assay: inhibition of CASP6 peptide cleavage – biochemical, VEID-R110 fluorescence, cherry-pick, dose response (AID 720632)
T5 sequence (P55212 whole entry): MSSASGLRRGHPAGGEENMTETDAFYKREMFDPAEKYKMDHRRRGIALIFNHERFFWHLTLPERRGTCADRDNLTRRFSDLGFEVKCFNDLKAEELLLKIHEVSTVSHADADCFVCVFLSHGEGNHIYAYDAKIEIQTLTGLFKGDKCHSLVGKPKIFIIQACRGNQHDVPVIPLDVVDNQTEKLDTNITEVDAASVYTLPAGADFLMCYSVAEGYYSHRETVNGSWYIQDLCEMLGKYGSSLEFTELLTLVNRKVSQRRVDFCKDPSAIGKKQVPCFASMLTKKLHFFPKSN

[8] = NIH-3T3 fibroblast cytotoxicity, dose response, cytotoxicity control, cell-based, fluorescence, Alamar Blue, secondary assay (AID 2327); assay type: functional;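 further: NIH-3T3 mouse fibroblasts cultured with fluconazole at 8 µg/mL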

| SMILES | IC50 [1] | IC50 [2] | EC50 [3] | AC50 [4] | AC50 [5] | AC50 [6] | AC50 [7] | EC50 [8] |
| --- | --- | --- | --- | --- | --- | --- | --- | --- |
| Cn1nc(-c2ccccn2)nc2c(=O)n(C)c(=O)nc1-2 | 2.07 µM (active) | 4.26 µM (active) | 0.0191 µM (active) | 1.92 µM (active) | 6.73 µM (active) | 0.573 µM (active) | 0.219 µM (active) | – |
| CCCCCCCCCCn1c2c(c(=N)c3c1CCC3)CCC2 | – | 38.4 µM (inactive) | 1.83 µM (active) | – | – | 2.81 µM (active) | – | 26.1 µM (active) |
| CCC(=O)NC(c1ccc(OC)cc1)c1cc(Cl)c2cccnc2c1O (stereo unspecified) | – | – | – | 1.08 µM (active) | – | – | – | 12.6 µM (inconclusive) |
| COc1ccc(NS(=O)(=O)c2ccc3c(c2)[C@H]2C=CC[C@H]2[C@@H](c2ccc(C(=O)O)cc2)N3)cc1 | 5.28 µM (active) | – | – | – | 18.2 µM (active) | – | 4.43 µM (active) | – |
